Measured values taken from patent EP0555116B1, “Compositions based on antiseptics and their applications” (HUTCHINSON, priority 1992, dated 1993).

Columns and labels:
[1] = system: Candida albicans ATCC 1031; test: Growth inhibition test (DGHM, Essai 2, Tables A-C), 72 h at 37°C; non/A/B/C = without or with inactivating substances A, B, C; assay type: cell-based
Protocol: Un autre essai a été réalisé à partir des solutions suivantes : • 100 ml d'une solution à 0,1 % de digluconate de chlorhexidine (pH 6) et • 100 ml d'une solution à 0,1 % de Bardac 22®. […]
(§1) Les tests ont été réalisés conformément au protocole décrit dans le Chapitre I/2.1 et 2.2 de Richtlinien für die Prüfung und Bewertung chemischer Desinfektionsverfahren der DGHM, Stand 1.1., 1981).
Les Tableaux A, B et C illustrent respectivement l'activité bactéricide et fongicide d'une solution aqueuse à 0,1 % de digluconate de chlorhexidine, d'une solution aqueuse à 0,1 % de Bardac 22® et d'un mélange à part égale des deux composés. Les protocoles dont ces Tableaux illustrent les résultats comprennent une incubation de 72 heures à 37°C et l'utilisation, comme témoins, des substances inactivantes suivantes : A : Tween® 80 3 % + lécithine 0,3 % + cystéine 0,1 %; B : Tween® 80 3 % + saponine 3 % + cystéine 0,1 % + histidine 0,1 %; C : Tween® 80 3 % + lécithine 0,3 % + histidine 0,1 % + thiosulfate de sodium 0,5 %.
Dans ces Tableaux, le signe "+" indique une croissance et le signe "-" l'absence de croissance.

[2] = system: cellules fibroblastiques humaines; test: Cytotoxicity control of the products on human fibroblast cultures (10 tubes, 3 days); assay type: cell-based; conditions: solution à 0,04 %; pur et dilutions 10^-1 à 10^-3, 0,1 ml dans 1 ml
Source text: On réalise des contrôles de cytotoxicité des produits pour les cultures cellulaires utilisées dans les tests, c'est-à-dire les cellules fibroblastiques humaines.
Les cellules sont cultivées en milieu de Dulbecco enrichi en sérum de veau foetal à 10 %; au moment de leur utilisation, les cellules sont lavées et on utilise le même milieu de culture, mais dépourvu de sérum de veau.
Pour chaque produit testé ou chaque composition, on a utilisé 10 tubes de culture cellulaire et après inoculation du produit, les tubes ont été surveillés pendant trois jours.
Chaque produit a été successivement utilisé pur, et aux dilutions 10^-1, 10^-2, 10^-3 et ajouté aux tubes de culture contenant 1 ml de milieu nutritif, sous le volume de 0,1 ml.

[3] = system: antigène du virus de l'hépatite B (AgHBs); test: In vitro degradation of hepatitis B virus antigen (AgHBs): virucide + patient human serum (1/1000); assay type: biochemical; conditions: Bardac® 0,2 %
Source text: I - Action sur la dégradation in vitro de l'antigène du virus de l'hépatite B (AgHBs) du virus de l'hépatite B : virucide + sérum humain de malade (1/1000ème).

S. aureus ATCC 6538 = test: Disinfection time test (Essai 2, Tables D-F), reaction at 22°, subcultures 72 h at 37°C; assay type: cell-based, Staphylococcus aureus
Protocol: Un autre essai a été réalisé à partir des solutions suivantes : • 100 ml d'une solution à 0,1 % de digluconate de chlorhexidine (pH 6) et • 100 ml d'une solution à 0,1 % de Bardac 22®.
as §1
Les tests dont les résultats sont illustrés aux Tableaux D, E et F ont été réalisés à une température de réaction de 22° avec une incubation des sous-cultures 72 heures à 37°C avec comme substances inactivantes : Tween® 80 3 % + saponine 3 % + cystéine 0,1 % + histidine 0,1 %; ces Tableaux illustrent respectivement l'activité bactéricide et fongicide d'une solution aqueuse à 0,1 % de digluconate de chlorhexidine, d'une solution aqueuse à 0,1 % de Bardac 22® et d'un mélange à part égale des deux composés et montrent l'action des antiseptiques précités, en fonction du temps de contact, et font apparaître la même synergie d'action de l'association que ci-dessus, dans la mesure où l'association des deux composés permet de diminuer significativement leur concentration, pour l'obtention d'un même effet. TABLEAU D

**Q.** Which results are given for CCCCCCCCCC[N+](C)(C)CCCCCCCCCC [Bardac®, chlorure de didécyldiméthylammonium]?
**A.** croissance ([1]; Conc. 0,1 % (vol/vol), A): +; croissance ([1]; Conc. 0,1 % (vol/vol), B): +; croissance ([1]; Conc. 0,1 % (vol/vol), C): +; croissance ([1]; Conc. 0,1 % (vol/vol), non): -; croissance ([1]; Conc. 0,05 % (vol/vol), A): +; croissance ([1]; Conc. 0,5 % (vol/vol), A): +; croissance ([1]; Conc. 0,05 % (vol/vol), B): +; croissance ([1]; Conc. 0,5 % (vol/vol), B): +; croissance ([1]; Conc. 0,05 % (vol/vol), C): +; croissance ([1]; Conc. 0,5 % (vol/vol), C): +; croissance ([1]; Conc. 0,05 % (vol/vol), non): +; croissance ([1]; Conc. 0,5 % (vol/vol), non): -; croissance ([1]; Conc. 1,0 % (vol/vol), A): +; croissance ([1]; Conc. 1,0 % (vol/vol), B): +; croissance ([1]; Conc. 1,0 % (vol/vol), C): +; croissance ([1]; Conc. 1,0 % (vol/vol), non): -; croissance ([1]; Conc. 0,00625 % (vol/vol), A): +; croissance ([1]; Conc. 0,00625 % (vol/vol), B): +; croissance ([1]; Conc. 0,00625 % (vol/vol), C): +; croissance ([1]; Conc. 0,00625 % (vol/vol), non): +; croissance ([1]; Conc. 0,0125 % (vol/vol), A): +; croissance ([1]; Conc. 0,0125 % (vol/vol), B): +; croissance ([1]; Conc. 0,0125 % (vol/vol), C): +; croissance ([1]; Conc. 0,0125 % (vol/vol), non): +; croissance ([1]; Conc. 0,025 % (vol/vol), A): +; croissance ([1]; Conc. 0,025 % (vol/vol), B): +; croissance ([1]; Conc. 0,025 % (vol/vol), C): +; croissance ([1]; Conc. 0,025 % (vol/vol), non): +; concentration en substance active inhibant la croissance ([1]; antiseptique seul): 0,0001%; toxicité pour les cultures cellulaires [2]: non toxique à la dilution 10^-3; AgHBs résiduel (ratio) [3]: 1,35; croissance (S. aureus ATCC 6538; Conc. 0,1 % (vol/vol), 1 min): +; croissance (S. aureus ATCC 6538; Conc. 0,1 % (vol/vol), 3 min): +; croissance (S. aureus ATCC 6538; Conc. 0,1 % (vol/vol), 5 min): +; croissance (S. aureus ATCC 6538; Conc. 0,1 % (vol/vol), 15 min): +; croissance (S. aureus ATCC 6538; Conc. 0,1 % (vol/vol), 30 min): +; croissance (S. aureus ATCC 6538; Conc. 0,1 % (vol/vol), 60 min): +; croissance (S. aureus ATCC 6538; Conc. 0,05 % (vol/vol), 1 min): +; croissance (S. aureus ATCC 6538; Conc. 0,5 % (vol/vol), 1 min): +; croissance (S. aureus ATCC 6538; Conc. 0,05 % (vol/vol), 3 min): +; croissance (S. aureus ATCC 6538; Conc. 0,5 % (vol/vol), 3 min): +; croissance (S. aureus ATCC 6538; Conc. 0,05 % (vol/vol), 5 min): +; croissance (S. aureus ATCC 6538; Conc. 0,5 % (vol/vol), 5 min): +; croissance (S. aureus ATCC 6538; Conc. 0,05 % (vol/vol), 15 min): +; croissance (S. aureus ATCC 6538; Conc. 0,5 % (vol/vol), 15 min): +; croissance (S. aureus ATCC 6538; Conc. 0,05 % (vol/vol), 30 min): +; croissance (S. aureus ATCC 6538; Conc. 0,5 % (vol/vol), 30 min): +; croissance (S. aureus ATCC 6538; Conc. 0,05 % (vol/vol), 60 min): +; croissance (S. aureus ATCC 6538; Conc. 0,5 % (vol/vol), 60 min): +; croissance (S. aureus ATCC 6538; Conc. 1 % (vol/vol), 1 min): +; croissance (S. aureus ATCC 6538; Conc. 1 % (vol/vol), 3 min): +; croissance (S. aureus ATCC 6538; Conc. 1 % (vol/vol), 5 min): +; croissance (S. aureus ATCC 6538; Conc. 1 % (vol/vol), 15 min): +; croissance (S. aureus ATCC 6538; Conc. 1 % (vol/vol), 30 min): -; croissance (S. aureus ATCC 6538; Conc. 1 % (vol/vol), 60 min): -; croissance (S. aureus ATCC 6538; Conc. 5 % (vol/vol), 1 min): +; croissance (S. aureus ATCC 6538; Conc. 5 % (vol/vol), 3 min): +; croissance (S. aureus ATCC 6538; Conc. 5 % (vol/vol), 5 min): +; croissance (S. aureus ATCC 6538; Conc. 5 % (vol/vol), 15 min): -; croissance (S. aureus ATCC 6538; Conc. 5 % (vol/vol), 30 min): -; croissance (S. aureus ATCC 6538; Conc. 5 % (vol/vol), 60 min): -; croissance (S. aureus ATCC 6538; Conc. 10 % (vol/vol), 1 min): +; croissance (S. aureus ATCC 6538; Conc. 10 % (vol/vol), 3 min): -; croissance (S. aureus ATCC 6538; Conc. 10 % (vol/vol), 5 min): -; croissance (S. aureus ATCC 6538; Conc. 10 % (vol/vol), 15 min): -; croissance (S. aureus ATCC 6538; Conc. 10 % (vol/vol), 30 min): -; croissance (S. aureus ATCC 6538; Conc. 10 % (vol/vol), 60 min): -; croissance (S. aureus ATCC 6538; Conc. 25 % (vol/vol), 1 min): +; croissance (S. aureus ATCC 6538; Conc. 25 % (vol/vol), 3 min): -; croissance (S. aureus ATCC 6538; Conc. 25 % (vol/vol), 5 min): -; croissance (S. aureus ATCC 6538; Conc. 25 % (vol/vol), 15 min): -; croissance (S. aureus ATCC 6538; Conc. 25 % (vol/vol), 30 min): -; croissance (S. aureus ATCC 6538; Conc. 25 % (vol/vol), 60 min): -
